Measured values as given in US20240358681A1, “METHODS OF USE OF PPAR AGONIST COMPOUNDS AND PHARMACEUTICAL COMPOSITIONS THEREOF” (Mitobridge, Inc., priority 2021, published 2024).
“Also recorded” adds a separate entry of the source.

Legend:
KSS fibroblasts = assay: Seahorse mitochondrial fatty acid oxidation; type: cell-based, human
Protocol: (§1) FAO was measured using a Seahorse XF96 (Seahorse Biosciences). MELAS m.3243A>G fibroblasts, KSS fibroblasts, and MERRF tRNA-Lys 8344 cybrids were treated with DMSO or Compound (I) 8 hours after seeding into flasks. 24 hours after initial treatment, media was changed to complete media with DMSO or Compound (I) with reduced glucose (1.1 mM for primary fibroblasts and 5.5 mM for cybrids) and 0.5 mM carnitine. After 48 hours after initial treatment, cells were plated into 96-well cell culture microplates at a density of 40,000 cells per well. FAO assay was initiated 8 hours after plating.
(§2) 200 μL of KHB was added to the blank wells and 200 μL KHB mixed with control BSA (final 0.074 mM) or BSA-palmitate (final 0.074 mM BSA, 500 μM palmitate was added to the appropriate wells. Stress test components compounds are added in the following sequential order; 1) Oligomycin, 2) FCCP, and 3) Rotenone and Antimycin A for final concentrations of 2.5 μM, 6 μM and 1 μM, respectively. Oxidation of palmitate was assessed using the same ratio as LHON/Leigh fibroblasts.

[1] = test system: MELAS m.3243A>G fibroblasts; assay: Seahorse mitochondrial fatty acid oxidation; type: cell-based, human
Protocol: as §1, §2

[2] = test system: MERRF tRNA-Lys 8344 cybrids; assay: Seahorse mitochondrial fatty acid oxidation; type: cell-based, human; details: MERRF cybrid cell line, FIG. 4B
Protocol: as §1, §2

[3] = test system: PPARδ target genes and FAO genes in quadriceps muscle; assay: Gene expression analysis of quadriceps muscle in aged DIO mice; type: in vivo, mouse; details: 30 mg/kg oral once daily, 5 weeks
Protocol: (§3) All animal studies were performed in accordance with Charles River Laboratories animal welfare protocols. Male Diet-Induced Obese (DIO) C57BL/6NTac mice 28 weeks of age were fed a high fat diet. 20 mice were randomized based on bodyweight into two cohorts of 10 mice each. Five mice were assigned to each treatment group in each cohort (i) vehicle or (ii) Compound (I) at 30 mg/kg via (n=10 total animals per treatment). […] Mice were acclimatized to the treadmill room for one hour on days of training or endurance runs. After an initial 5 min exploration period the treadmill belt moved at 5 m/min for 10 min with the motivation grid intensity set to 0.46 mA. Mice required a few visits to the grid to learn to walk/run on the moving belt and avoid the electric grid shock. After two acclimatization periods the mice learned to avoid the electric grid and stay on the moving belt, with fewer visits to the electric grid. The maximum speed for the endurance run was capped at 16.5 m/min based on speed acclimation runs, which represents the speed at which 25% of animals are running in the top ⅔ of the treadmill at a 5° slope. The mice were considered exhausted if they stayed on the electric grid with no limbs on the treadmill belt for 10 seconds.
Before and after the exhaustion run, blood samples were obtained via a tail vein nick. At the end of the study (day 45) whole blood along with gastrocnemius and quadriceps skeletal muscles were collected following CO2 euthanasia.

[4] = test system: aged Diet-Induced Obese (DIO) C57BL/6NTac mice; assay: Forced exhaustion running, activity and body composition in aged DIO mice; type: in vivo, mouse; details: 30 mg/kg
Protocol: All animal studies were performed in accordance with Charles River Laboratories animal welfare protocols. Male Diet-Induced Obese (DIO) C57BL/6NTac mice 28 weeks of age were fed a high fat diet. 20 mice were randomized based on bodyweight into two cohorts of 10 mice each. Five mice were assigned to each treatment group in each cohort (i) vehicle or (ii) Compound (I) at 30 mg/kg via (n=10 total animals per treatment). Groups were dosed orally by gavage, once daily for 45 days at the start of the dark cycle. Mice were acclimatized to the treadmill room for one hour on days of training or endurance runs. After an initial 5 min exploration period the treadmill belt moved at 5 m/min for 10 min with the motivation grid intensity set to 0.46 mA. Mice required a few visits to the grid to learn to walk/run on the moving belt and avoid the electric grid shock. After two acclimatization periods the mice learned to avoid the electric grid and stay on the moving belt, with fewer visits to the electric grid. The maximum speed for the endurance run was capped at 16.5 m/min based on speed acclimation runs, which represents the speed at which 25% of animals are running in the top ⅔ of the treadmill at a 5° slope. The mice were considered exhausted if they stayed on the electric grid with no limbs on the treadmill belt for 10 seconds.
Endurance was calculated as a Fatigue Index; this accounts for distance traveled, time on the treadmill, the number of breaks in running, and the length of those breaks. The cumulative number of stimulations for individual animals was plotted over time and the area under the curve (AUC) was calculated. AUC was divided by the distance individual animals completed during the course of the fatigue run to obtain the Fatigue Index. Voluntary activity is defined as the total number of X and Y axis laser beam breaks and rearing is defined as the total number of Z axis breaks per treatment group.

[5] = Tissue exposure in skeletal muscle (gastrocnemius) of aged DIO mice; type: in vivo, mouse; details: 30 mg/kg oral once daily, 5 weeks, FIG. 6A
Protocol: as §3
Before and after the exhaustion run, blood samples were obtained via a tail vein nick. […]

PPARδ = target: T1, PPARδ (Mus musculus, UniProt P35396); assay: Mouse EC50 (PPARδ agonist)
T1 sequence (P35396 1-440): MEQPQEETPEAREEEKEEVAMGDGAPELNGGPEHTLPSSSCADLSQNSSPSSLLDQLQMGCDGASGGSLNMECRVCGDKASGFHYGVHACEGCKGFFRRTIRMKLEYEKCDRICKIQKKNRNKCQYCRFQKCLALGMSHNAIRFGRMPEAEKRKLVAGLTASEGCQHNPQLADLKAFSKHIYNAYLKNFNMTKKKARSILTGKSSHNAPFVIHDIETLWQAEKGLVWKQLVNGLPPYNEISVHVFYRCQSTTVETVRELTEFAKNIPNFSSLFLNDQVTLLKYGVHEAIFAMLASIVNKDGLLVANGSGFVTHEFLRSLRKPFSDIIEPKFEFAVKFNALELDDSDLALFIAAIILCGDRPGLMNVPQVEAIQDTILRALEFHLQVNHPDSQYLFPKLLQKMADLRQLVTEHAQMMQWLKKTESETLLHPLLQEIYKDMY

[6] = 52-week monkey GLP toxicity study; type: in vivo
[7] = 5 weeks, vs vehicle, FIG. 6D-6E

SMILES: Cc1cnc(-c2ccc(C(F)(F)F)cc2)n1Cc1ccccc1OCCC[C@@H](C)CC(=O)O [Compound (I), (R)-3-Methyl-6-(2-((5-methyl-2-(4-(trifluoromethyl)phenyl)-1H-imidazol-1-yl)methyl)-phenoxy)hexanoic acid]
- fatty acid-mediated OXPHOS, dose response (KSS fibroblasts; KSS patient fibroblasts, two biological replicates, FIG. 4B): trending dose response
- increase in fatty acid mediated OXPHOS (KSS fibroblasts; KSS, 30 nM): thirty percent or greater
- restoration to the fatty acid-mediated OXPHOS of healthy donor fibroblasts (KSS fibroblasts; KSS, 30 nM): near complete restoration
- fatty acid-mediated OXPHOS, dose response ([1]; MELAS patient fibroblasts, two biological replicates, FIG. 4B): trending dose response
- increase in fatty acid mediated OXPHOS ([1]; MELAS, 30 nM): thirty percent or greater
- restoration to the fatty acid-mediated OXPHOS of healthy donor fibroblasts ([1]; MELAS, 30 nM): partial
- fatty acid mediated OXPHOS response ([2]; 30 nM): less pronounced
- fatty acid mediated OXPHOS, dose response [2]: dose-dependent trend
- Angptl4 expression increase in quadriceps muscle ([3]; FIG. 5A): 3.5 fold
- Pdk4 expression increase in quadriceps muscle ([3]; FIG. 5B): 2.5 fold
- Acadvl expression (FAO gene) ([3]; FIG. 5C-5E): significantly increased
- Cpt1a expression (FAO gene) ([3]; FIG. 5C-5E): significantly increased
- Slc25a20 expression (FAO gene) ([3]; FIG. 5C-5E): significantly increased
- rate of falls in the motivational grid ([4]; 5 weeks, FIG. 5F): decrease
- run distance ([4]; 5 weeks, FIG. 5H): no change
- Fatigue Index ([4]; 5 weeks, vs vehicle, FIG. 5I): less fatigued
- rearing [4, 7]: trend towards increased
- voluntary activity [4, 7]: trend towards increased; also recorded: No statistically significant differences
- body weight ([4]; during the study, FIG. 6B): did not alter
- body composition ([4]; during the study, FIG. 6C): did not alter; also recorded: No statistically significant differences
- skeletal muscle exposure [5]: detectable and covered the mouse EC50
- EC50 (PPARδ): 14 nM
- no observed adverse effect level (NOAEL) [6]: highest tested dose
